# Patent US20230364063A1, “ORAL PHARMACEUTICAL COMPOSITION AND METHOD FOR PRODUCING SAME” (ARTham Therapeutics Inc., priority 2020, published 2023)
# Like-named read-outs stand apart in the source and are kept apart here.
# Assays:
# [1] = cited from earlier work
# [2] = cited from earlier work; remark: listed apart in the source
# [3] = cited from earlier work; remark: listed apart in the source
# advanced solid tumors = details: Phase I, patients with advanced solid tumors; cited from earlier work
# [4] = pH-dependent dissolution profile (equilibrium solubility) of ART-001 in buffers pH 1 to 10, HPLC; type: physicochemical; details: for solubility: aqueous buffer, thermodynamic from solid, room temperature
# Description: The dissolution profile of ART-001 in various pH environments was tested by the following procedure. Excess amounts of ART-001 were added to 50 mM phosphate buffer (pH 1, 2, 7, and 8), citrate buffer (pH 3, 4, 5, and 6), boric acid buffer (pH 9), and bicarbonate buffer (pH 10), with the pH adjusted variously in the range of from pH 1 to pH 10 with a 6N HCl or 10N sodium hydroxide solution, and stirred at room temperature. When the dissolved state reached equilibrium, a fixed amount of each sample was taken. After centrifugation at 1000 rpm for 10 minutes, the supernatant was collected and measured by HPLC. The pH at the beginning and end of dissolution were also measured and recorded.
# [5] = healthy adults, cited from earlier work
structure (smiles),measurement,setting,value
"Cc1nc(NC(=O)N2CCC[C@H]2C(N)=O)sc1-c1ccnc(C(C)(C)C(F)(F)F)c1 [alperisib, Alpelisib]",pharmacokinetics in clinical studies,[1],variations in pharmacokinetics
same,solubility,[2],pH-dependent solubility
"Nc1nc2cc(-c3ccc4ncc(C(=O)N5CCOCC5)n4c3)ccc2o1 [ART-001, Serabelisib]",solubility in acidic solutions,[3]; acidic solutions,high solubility
same,solubility in neutral to basic solutions,[3]; neutral to basic solutions,extremely low solubility
same,therapeutic efficacy,advanced solid tumors,limited therapeutic efficacy
same,variability in pharmacokinetics,advanced solid tumors,high degree of variability
same,solubility,"[4]; bicarbonate buffer, start pH 10.00, end pH 10.07, read-out: Solubility",2.18 µg/mL
same,solubility,"[4]; boric acid buffer, start pH 9.00, end pH 9.16, read-out: Solubility",1.3 µg/mL
same,solubility,"[4]; citrate buffer, start pH 3.17, end pH 3.33, read-out: Solubility",36.8 µg/mL
same,solubility,"[4]; citrate buffer, start pH 4.00, end pH 4.19, read-out: Solubility",5.7 µg/mL
same,solubility,"[4]; citrate buffer, start pH 5.03, end pH 5.2, read-out: Solubility",1.7 µg/mL
same,solubility,"[4]; citrate buffer, start pH 5.95, end pH 6.11, read-out: Solubility",1.3 µg/mL
same,solubility,"[4]; citrate, phosphate, boric acid and bicarbonate buffers, pH 6 or higher, read-out: solubility under high pH conditions",1.3 µg/mL
same,solubility under high pH conditions when the solubility under low pH conditions is considered to be 100%,[4]; pH 6 or higher vs pH 2.5 or lower,about 4%
same,solubility,"[4]; phosphate buffer, pH 2.5 or lower, read-out: solubility under low pH conditions",312 to 10000 µg/mL
same,solubility,"[4]; phosphate buffer, start pH 1.04, end pH 1.33, read-out: Solubility",1140 µg/mL
same,solubility,"[4]; phosphate buffer, start pH 2.09, end pH 2.56, read-out: Solubility",312 µg/mL
same,solubility,"[4]; phosphate buffer, start pH 6.81, end pH 6.97, read-out: Solubility",1.2 µg/mL
same,solubility,"[4]; phosphate buffer, start pH 8.15, end pH 8.3, read-out: Solubility",1.3 µg/mL
same,absorption of ART-001,"[5]; co-administration of proton pump inhibitor (lansoprazole), stomach pH neutral",markedly decreased
same,pharmacokinetic variability,[5],significant pharmacokinetic variability
